From patent US9718812B2, “Substituted thiazole or oxazole P2X7 receptor antagonists” (Axxam S.P.A., priority 2014, dated 2017) come the findings set out here.

The target of one assay is P2X7 receptor (Homo sapiens (Human), UniProt Q99572). Description: YO-PRO-1 Uptake Assay (large pore form, Bz-ATP stimulated). Type of assay: cell-based. Particulars: HEK-293 cells stably transfected with P2X7 receptor; Bz-ATP EC80 (30 μM); 5 μM YO-PRO-1. The text has this:
YO-PRO®-1 is a fluorescent DNA-binding dye with a MW of 374 Da (Molecular Probes®, cat. Y3603). This method is based upon the presumed ability of YO-PRO®-1 to enter through the dilated or “large pore form” of P2X7 receptor and to bind to intracellular DNA whereupon it increases many fold its fluorescence intensity. The dye has an absorption spectrum compatible with excitation at 488 nm by argon laser sources and its emission wavelength is in the range of 515-575 nm. The aim of this assay was to validate the interaction of antagonists with P2X7 receptor using an alternative readout to Ca^2+-sensitive fluorescent dyes.
HEK-293 cells stably transfected with P2X7 receptor were seeded overnight in growth medium at 20,000 cells/well in 384-well plate. 24 hours later, the medium was removed, the cells were washed with Low Divalent Cation Assay Buffer (0.3 mM Ca2+ and 0 mM Mg2+) and then pre-loaded with 20 μL/w of 5 μM YO-PRO®-1 dye. […] fluorescence measurement immediately started. Then, 10 μL/w of test compounds and reference antagonist A438079 at 3×-concentration were injected with the […] and the kinetic response over a period of five minutes was monitored. A second injection of 10 μL/w of 3× Bz-ATP EC80 (30 μM) was performed with the […] and the signal of the emitted fluorescence was recorded for additional 60 minutes. All the experiment was carried out with a Low Divalent Cation Assay Buffer (0.3 mM Ca^2+ and 0 mM Mg^2+).
The effect of the test compounds was measured as percent inhibition vs the reference antagonist and IC50 values were calculated accordingly.

The next assay has as its target P2X7 receptor (hP2X7) (Homo sapiens (Human), UniProt Q99572). Description: Screen Quest Fluo-8 No Wash Calcium Assay (Bz-ATP-induced Ca2+ influx, FLIPR TETRA). The assay is classed as cell-based. To be noted: HEK-293 cells stably transfected with P2X7 receptor, Fluo-8 calcium, Low Divalent Cation Assay Buffer. As to the method:
Extracellular binding of Bz-ATP to P2X7 receptor opens the channel and allows Ca2+ influx into the cells. This Ca2+ entry was measured in HEK-293 cells stably transfected with P2X7 receptor using Screen Quest™ Fluo-8 No Wash Calcium Assay Kit (AAt Bioquest®, cat. 36316). Once inside the cell, the lipophilic blocking groups of Fluo-8 are cleaved by non-specific cell esterases, resulting in a negatively-charged fluorescent dye that stays inside cells. Its fluorescence increases upon binding to calcium. When HEK-293/P2X7 cells are stimulated with Bz-ATP, Ca2+ enters the cells and the fluorescence of Fluo-8 NW increases. The dye has an absorption spectrum compatible with excitation at 488 nm by argon laser sources and its emission wavelength is in the range of 515-575 nm.
HEK-293 cells stably transfected with P2X7 receptor were seeded overnight in growth medium at 10,000 to 20,000 cells/well in 384-well plate. 24 hours later, the medium was removed and the cells were pre-loaded at RT for 1 hour with 20 μL/w of Fluo-8 NW. Then 10 μL/w of test compounds and reference antagonist A438079 at 3×-concentration were injected with the […] and the kinetic response over a period of five minutes was monitored.

Sequence of P2X7 receptor (hP2X7) (Q99572 whole entry): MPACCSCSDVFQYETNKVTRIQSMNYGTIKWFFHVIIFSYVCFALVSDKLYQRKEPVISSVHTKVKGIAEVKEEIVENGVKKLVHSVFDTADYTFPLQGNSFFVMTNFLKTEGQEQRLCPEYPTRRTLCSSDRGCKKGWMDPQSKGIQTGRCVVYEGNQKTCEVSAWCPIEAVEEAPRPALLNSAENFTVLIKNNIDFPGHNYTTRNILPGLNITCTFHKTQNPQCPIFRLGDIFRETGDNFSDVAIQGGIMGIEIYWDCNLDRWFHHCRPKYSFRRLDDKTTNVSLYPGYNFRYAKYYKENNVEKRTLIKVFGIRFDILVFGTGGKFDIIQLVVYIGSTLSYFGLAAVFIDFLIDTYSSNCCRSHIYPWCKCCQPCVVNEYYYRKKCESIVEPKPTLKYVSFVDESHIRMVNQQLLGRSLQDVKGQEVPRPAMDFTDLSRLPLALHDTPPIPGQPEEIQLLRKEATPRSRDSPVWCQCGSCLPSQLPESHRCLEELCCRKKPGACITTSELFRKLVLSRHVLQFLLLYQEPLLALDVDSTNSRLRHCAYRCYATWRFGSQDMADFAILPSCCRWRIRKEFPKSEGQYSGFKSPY
Sequence of P2X7 receptor (Q99572 whole entry): as above

One may read the IC50 as the concentration at which inhibition is half-maximal. `Cc1cccc(Cl)c1C(=O)NCC(c1scnc1C)N1CCOC(c2ccc(F)cc2F)C1` (stereo not shown) [Compound 100, 2-chloro-N-{2-[2-(2,4-difluorophenyl)morpholin-4-yl]-2-(4-methyl-1,3-thiazol-5-yl)ethyl}-6-methylbenzamide]: the figures for the concentration for half-maximal inhibition (IC50) against P2X7 receptor and on P2X7 receptor (hP2X7) were 72 nM and 68 nM, respectively.
For `Nc1ccc(Cl)c(C(=O)NCC(c2cncs2)N2CCOCC2)c1` (stereo not shown) [Compound 12, 5-amino-2-chloro-N-[2-(morpholin-4-yl)-2-(1,3-thiazol-5-yl)ethyl]benzamide-], in that order: 846 nM and 143 nM.
The corresponding values for `O=C(NCC(c1cncs1)N1CCC(Oc2ccccc2)CC1)c1c(F)cccc1Cl` (stereo not shown) [Compound 27, 2-chloro-6-fluoro-N-[2-(4-phenoxypiperidin-1-yl)-2-(1,3-thiazol-5-yl)ethyl]benzamide] are 52 nM and 63 nM.
With `Cc1ncc(C(CNC(=O)c2c(C)cccc2Cl)N2CCc3ccccc3C2)s1` (stereo not shown) [Compound 41, 2-chloro-6-methyl-N-[2-(2-methyl-1,3-thiazol-5-yl)-2-(1,2,3,4-tetrahydroisoquinolin-2-yl)ethyl]benzamide], the IC50 on P2X7 receptor stood at 996 nM; at P2X7 receptor (hP2X7) it was 853 nM.
For `Cc1cccc(C)c1C(=O)NCC(c1scnc1C)N1CCc2ccccc2C1` (stereo not shown) [Compound 30, 2,6-dimethyl-N-[2-(4-methyl-1,3-thiazol-5-yl)-2-(1,2,3,4-tetrahydroisoquinolin-2-yl)ethyl]benzamide], the IC50 at P2X7 receptor is 37 nM; at P2X7 receptor (hP2X7), 46 nM.
Turning to `Cc1ncsc1C(CNC(=O)c1cc(-c2ncc(F)cn2)ccc1Cl)N1CCOCC1` (stereo not shown) [Compound 37, 2-chloro-5-(5-fluoropyrimidin-2-yl)-N-[2-(4-methyl-1,3-thiazol-5-yl)-2-(morpholin-4-yl)ethyl]benzamide], the IC50 on P2X7 receptor came to 90 nM; on P2X7 receptor (hP2X7), 106 nM.
For `Nc1ccc(Cl)c(C(=O)NCC(c2cncs2)N2CCc3ccccc3C2)c1` (stereo not shown) [Compound 17, 5-amino-2-chloro-N-[2-(1,2,3,4-tetrahydroisoquinolin-2-yl)-2-(1,3-thiazol-5-yl)ethyl]benzamide], in that order: 690 nM and 136 nM.
The corresponding values for `COc1cccc(C(=O)NCC(c2ocnc2C)N2CCC(F)(F)CC2)c1OC` (stereo not shown) [Compound 50, N-[2-(4,4-difluoropiperidin-1-yl)-2-(4-methyl-1,3-oxazol-5-yl)ethyl]-2,3-dimethoxybenzamide] are 2090 nM and 4970 nM.
For `Cc1ncsc1C(CNC(=O)c1c(F)cccc1Cl)N1CCOC(c2ccc(F)cc2F)C1` (stereo not shown) [Compound 91, 2-chloro-N-{2-[2-(2,4-difluorophenyl)morpholin-4-yl]-2-(4-methyl-1,3-thiazol-5-yl)ethyl}-6-fluorobenzamide], in that order: 53 nM and 72 nM.
As to `Cc1ncc(C(CNC(=O)c2c(F)cccc2Cl)N2CCC(OCc3ccccc3)CC2)s1` (stereo not shown) [Compound 62, N-{2-[4-(benzyloxy)piperidin-1-yl]-2-(2-methyl-1,3-thiazol-5-yl)ethyl}-2-chloro-6-fluorobenzamide], the IC50 on P2X7 receptor was determined as 1110 nM; on P2X7 receptor (hP2X7) it was 576 nM.
The corresponding values for `O=C(NCC(c1nccs1)N1CCC(F)(F)CC1)c1c(F)cccc1Cl` (stereo not shown) [Compound 2, 2-chloro-N-[2-(4,4-difluoro-piperidin-1-yl)-2-(1,3-thiazol-2-yl)-ethyl]-6-fluoro-benzamide] are 1300 nM and 306 nM.
The corresponding values for `CCCc1ncc(C(CNC(=O)c2cc(-c3ncc(F)cn3)ccc2Cl)N2CCC(F)(F)CC2)s1` (stereo not shown) [Compound 107, 2-chloro-N-[2-(4,4-difluoropiperidin-1-yl)-2-(2-propyl-1,3-thiazol-5-yl)ethyl]-5-(5-fluoropyrimidin-2-yl)benzamide] are 158 nM and 631 nM.
For `Cc1cccc(C)c1C(=O)NCC(c1cncs1)N1CCC(OCc2ccccc2)CC1` (stereo not shown) [Compound 23, N-{2-[4-(benzyloxy)piperidin-1-yl]-2-(1,3-thiazol-5-yl)ethyl}-2,6-dimethylbenzamide], in that order: 40 nM and 118 nM.
With `Cc1cccc(C)c1C(=O)NCC(c1cnco1)N1CCC(F)(F)CC1` (stereo not shown) [Compound 46, N-[2-(4,4-difluoropiperidin-1-yl)-2-(1,3-oxazol-5-yl)ethyl]-2,6-dimethylbenzamide], the IC50 on P2X7 receptor came to 55 nM; on P2X7 receptor (hP2X7), 18 nM.
The corresponding values for `Cc1cccc(Cl)c1C(=O)NCC(c1cncs1)N1CCC(F)(F)CC1` (stereo not shown) [Compound 15, 2-chloro-N-[2-(4,4-difluoropiperidin-1-yl)-2-(1,3-thiazol-5-yl)ethyl]-6-methylbenzamide] are 38 nM and 8 nM.
The corresponding values for `O=C(NCC(c1cnc(C2CC2)s1)N1CCC(F)(F)CC1)c1cc(-c2ncc(F)cn2)ccc1Cl` (stereo not shown) [Compound 87] are 126 nM and 179 nM.
As for `O=C(NCC(c1cnc(C2CCC2)s1)N1CCC(F)(F)CC1)c1cc(-c2ncc(F)cn2)ccc1Cl` (stereo not shown) [Compound 111], the values for the IC50 against P2X7 receptor and at P2X7 receptor (hP2X7) were 326 nM and 1020 nM, respectively.
For `Cc1ncc(C(CNC(=O)c2cc(-c3ncc(F)cn3)ccc2Cl)N2CCC(F)(F)CC2)s1` (single isomer, unassigned; (-)) [Compound 128, (−)-2-chloro-N-[2-(4,4-difluoro-piperidin-1-yl)-2-(2-methylthiazol-5-yl)ethyl]-5-(5-fluoropyrimidin-2-yl)benzamide], in that order: 24 nM and 141 nM.
In the case of `O=C(NCC(c1cnco1)N1CCC(OCc2ccccc2)CC1)c1c(F)cccc1Cl` (stereo not shown) [Compound 63, N-{2-[4-(benzyloxy)piperidin-1-yl]-2-(1,3-oxazol-5-yl)ethyl}-2-chloro-6-fluorobenzamide], the IC50 against P2X7 receptor is 158 nM; on P2X7 receptor (hP2X7) it was 69 nM.
For `O=C(NCC(c1cncs1)N1CCOCC1)c1c(F)cccc1Cl` (stereo not shown) [Compound 10, 2-chloro-6-fluoro-N(2-(morpholin-4-yl)-2-(thiazol-5-yl)-ethyl)benzamide], in that order: 57 nM and 57 nM.
The corresponding values for `Cc1cccc(Cl)c1C(=O)NCC(c1scnc1C)N1CCOC(c2ccc(F)cc2F)C1` (stereo not shown) [Compound 101, 2-chloro-N-{2-[2-(2,4-difluorophenyl)morpholin-4-yl]-2-(4-methyl-1,3-thiazol-5-yl)ethyl}-6-methylbenzamide] are 42 nM and 114 nM.
For `Cc1ncc(C(CNC(=O)c2c(F)cccc2Cl)N2CCC(F)(F)CC2)s1` (stereo not shown) [Compound 38, 2-chloro-N-[2-(4,4-difluoropiperidin-1-yl)-2-(2-methyl-1,3-thiazol-5-yl)ethyl]-6-fluorobenzamide], in that order: 49 nM and 87 nM.
`Cc1ncoc1C(CNC(=O)c1cc(-c2ncc(F)cn2)ccc1Cl)N1CCOCC1` (stereo not shown) [Compound 54, 2-chloro-5-(5-fluoropyrimidin-2-yl)-N-[2-(4-methyl-1,3-oxazol-5-yl)-2-(morpholin-4-yl)ethyl]benzamide]: the IC50 against P2X7 receptor was determined as 279 nM; at P2X7 receptor (hP2X7), 114 nM.
The corresponding values for `Cc1ncoc1C(CNC(=O)c1cc(-c2ncc(F)cn2)ccc1Cl)N1CCC(F)(F)CC1` (stereo not shown) [Compound 51, 2-chloro-N-[2-(4,4-difluoropiperidin-1-yl)-2-(4-methyl-1,3-oxazol-5-yl)ethyl]-5-(5-fluoropyrimidin-2-yl)benzamide] are 71 nM and 101 nM.
For `O=C(NCC(c1cncs1)N1CCc2ccccc2C1)c1c(F)cccc1Cl` (stereo not shown) [Compound 9, 2-chloro-N-[2-(3,4-dihydro-1H-isoquinolin-2-yl)-2-(1,3-thiazol-5-yl)-ethyl]-6-fluoro-benzamide], in that order: 464 nM and 100 nM.
For `Cc1cccc(C)c1C(=O)NCC(c1cncs1)N1CCC(Oc2ccccc2)CC1` (stereo not shown) [Compound 26, 2,6-dimethyl-N-[2-(4-phenoxypiperidin-1-yl)-2-(1,3-thiazol-5-yl)ethyl]benzamide], in that order: 44 nM and 119 nM.
